Test results as given in US9150577B2, “Heterocyclic compounds containing an indole core” (Boehringer Ingelheim International GmbH, priority 2009, dated 2015).

These compounds were tested against Human RSK2 (Homo sapiens (Human), UniProt P51812) (assay: Human RSK2 assay (Kinase Glo Plus, residual ATP);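 note: recombinant human RSK2 phosphorylating a substrate peptide, 90 min at 28 °C, leftover ATP read by luminescence, RLU scaled between no-kinase background and uninhibited kinase controls, 4-parameter fit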).
Sequence of Human RSK2 (P51812 whole entry): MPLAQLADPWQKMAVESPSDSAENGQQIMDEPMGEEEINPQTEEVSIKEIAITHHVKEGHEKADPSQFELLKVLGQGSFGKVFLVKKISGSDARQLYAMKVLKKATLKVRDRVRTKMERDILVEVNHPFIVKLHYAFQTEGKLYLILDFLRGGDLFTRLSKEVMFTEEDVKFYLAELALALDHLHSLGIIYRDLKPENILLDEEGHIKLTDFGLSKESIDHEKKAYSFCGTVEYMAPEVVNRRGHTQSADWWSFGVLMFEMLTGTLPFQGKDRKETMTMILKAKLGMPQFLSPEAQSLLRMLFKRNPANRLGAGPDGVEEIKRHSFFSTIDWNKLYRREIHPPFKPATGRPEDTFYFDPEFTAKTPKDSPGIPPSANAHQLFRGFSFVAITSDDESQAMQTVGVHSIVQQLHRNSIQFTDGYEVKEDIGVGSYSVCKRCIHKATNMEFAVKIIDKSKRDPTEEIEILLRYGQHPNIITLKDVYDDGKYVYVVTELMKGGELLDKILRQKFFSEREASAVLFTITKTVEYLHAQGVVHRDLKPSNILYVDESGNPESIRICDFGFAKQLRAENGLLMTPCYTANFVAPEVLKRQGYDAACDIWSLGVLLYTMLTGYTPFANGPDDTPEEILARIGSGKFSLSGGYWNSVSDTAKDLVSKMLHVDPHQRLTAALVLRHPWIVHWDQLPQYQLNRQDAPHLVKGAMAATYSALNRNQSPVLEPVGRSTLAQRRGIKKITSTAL
Assay type: biochemical

SMILES	IC50 [nM]
Cc1noc(NC(=O)c2ccc3cc4n(c3c2)CCCNC4=O)c1Cl [Example 194, N-(4-chloro-3-methyl-1,2-oxazol-5-yl)-1-oxo-2,3,4,5-tetrahydro-1H-[1,4]diazepino[1,2-a]indole-8-carboxamide]	3300
CC(C)(C)c1cc(NC(=O)c2ccc3cc4n(c3c2)CCCNC4=O)on1 [Example 195, N-(3-tert-butyl-1,2-oxazol-5-yl)-1-oxo-2,3,4,5-tetrahydro-1H-[1,4]diazepino[1,2-a]indole-8-carboxamide]	44
CC1(c2cc(NC(=O)c3ccc4cc5n(c4c3)CCCNC5=O)on2)CC1 [Example 197, N-[3-(1-methylcyclopropyl)-1,2-oxazol-5-yl]-1-oxo-2,3,4,5-tetrahydro-1H-[1,4]diazepino[1,2-a]indole-8-carboxamide]	27
Cc1ccc(-c2cc(NC(=O)c3ccc4cc5n(c4c3)CCCNC5=O)on2)cc1 [Example 199, N-[3-(4-methylphenyl)-1,2-oxazol-5-yl]-1-oxo-2,3,4,5-tetrahydro-1H-[1,4]diazepino[1,2-a]indole-8-carboxamide]	115
Cc1cccc(-c2cc(NC(=O)c3ccc4cc5n(c4c3)CCCNC5=O)on2)c1 [Example 200, N-[3-(3-methylphenyl)-1,2-oxazol-5-yl]-1-oxo-2,3,4,5-tetrahydro-1H-[1,4]diazepino[1,2-a]indole-8-carboxamide]	160
CC1(C)CNC(=O)c2cc3ccc(C(=O)Nc4cc(-c5ccccc5)no4)cc3n21 [Example 201, 4,4-dimethyl-1-oxo-N-(3-phenyl-1,2-oxazol-5-yl)-1,2,3,4-tetrahydropyrazino[1,2-a]indole-7-carboxamide]	15
CCCc1cc(NC(=O)c2ccc3cc4n(c3c2)CCCNC4=O)on1 [Example 202, 1-oxo-N-(3-propyl-1,2-oxazol-5-yl)-2,3,4,5-tetrahydro-1H-[1,4]diazepino[1,2-a]indole-8-carboxamide]	16
O=C(Nc1ccc2scnc2c1)c1ccc2cc3n(c2c1)CCCNC3=O [Example 203, N-(1,3-benzothiazol-5-yl)-1-oxo-2,3,4,5-tetrahydro-1H-[1,4]diazepino[1,2-a]indole-8-carboxamide]	180
COc1cc(NC(=O)c2ccc3cc4n(c3c2)CCCNC4=O)ccn1 [Example 204, N-(2-methoxypyridin-4-yl)-1-oxo-2,3,4,5-tetrahydro-1H-[1,4]diazepino[1,2-a]indole-8-carboxamide]	17
Cc1nc2ccc(NC(=O)c3ccc4cc5n(c4c3)CCCNC5=O)cc2s1 [Example 205, N-(2-methyl-1,3-benzothiazol-6-yl)-1-oxo-2,3,4,5-tetrahydro-1H-[1,4]diazepino[1,2-a]indole-8-carboxamide]	10
COc1ccnc(NC(=O)c2ccc3cc4n(c3c2)CCCNC4=O)c1 [Example 206, N-(4-methoxypyridin-2-yl)-1-oxo-2,3,4,5-tetrahydro-1H-[1,4]diazepino[1,2-a]indole-8-carboxamide]	96
O=C(Nc1cc(C(F)(F)F)no1)c1ccc2cc3n(c2c1)CCCNC3=O [Example 207, 1-oxo-N-[3-(trifluoromethyl)-1,2-oxazol-5-yl]-2,3,4,5-tetrahydro-1H-[1,4]diazepino[1,2-a]indole-8-carboxamide]	85
CC(C)(CO)c1cc(NC(=O)c2ccc3cc4n(c3c2)CCCNC4=O)on1 [Example 208, N-[3-(1-hydroxy-2-methylpropan-2-yl)-1,2-oxazol-5-yl]-1-oxo-2,3,4,5-tetrahydro-1H-[1,4]diazepino[1,2-a]indole-8-carboxamide]	96
O=C(Nc1cc(C2CCCCC2)no1)c1ccc2cc3n(c2c1)CCCNC3=O [Example 209, N-(3-cyclohexyl-1,2-oxazol-5-yl)-1-oxo-2,3,4,5-tetrahydro-1H-[1,4]diazepino[1,2-a]indole-8-carboxamide]	39

Further lines, results first:

IC50 [nM]	SMILES
30	O=C(Nc1cc(-c2cccnc2)no1)c1ccc2cc3n(c2c1)CCCNC3=O [Example 210, 1-oxo-N-[3-(pyridin-3-yl)-1,2-oxazol-5-yl]-2,3,4,5-tetrahydro-1H-[1,4]diazepino[1,2-a]indole-8-carboxamide]
290	O=C(Nc1cc(-c2ccccc2)on1)c1ccc2cc3n(c2c1)CCCNC3=O [Example 211, 1-oxo-N-(5-phenyl-1,2-oxazol-3-yl)-2,3,4,5-tetrahydro-1H-[1,4]diazepino[1,2-a]indole-8-carboxamide]
30	O=C(Nc1cc(Cc2ccccc2)on1)c1ccc2cc3n(c2c1)CCCNC3=O [Example 212, N-(5-benzyl-1,2-oxazol-3-yl)-1-oxo-2,3,4,5-tetrahydro-1H-[1,4]diazepino[1,2-a]indole-8-carboxamide]
66	CC(C)c1cc(NC(=O)c2ccc3cc4n(c3c2)CCCNC4=O)no1 [Example 213, 1-oxo-N-[5-(propan-2-yl)-1,2-oxazol-3-yl]-2,3,4,5-tetrahydro-1H-[1,4]diazepino[1,2-a]indole-8-carboxamide]
21	NC(=O)c1ccccc1NC(=O)c1ccc2cc3n(c2c1)CCCNC3=O [Example 215, N-(2-carbamoylphenyl)-1-oxo-2,3,4,5-tetrahydro-1H-[1,4]diazepino[1,2-a]indole-8-carboxamide]
6000	O=C(Nc1ccccc1Cl)c1ccc2cc3n(c2c1)CCCNC3=O [Example 216, N-(2-chlorophenyl)-1-oxo-2,3,4,5-tetrahydro-1H-[1,4]diazepino[1,2-a]indole-8-carboxamide]
7000	N#Cc1ccccc1NC(=O)c1ccc2cc3n(c2c1)CCCNC3=O [Example 217, N-(2-cyanophenyl)-1-oxo-2,3,4,5-tetrahydro-1H-[1,4]diazepino[1,2-a]indole-8-carboxamide]
40	O=C(Nc1cc(-c2ccccc2)[nH]n1)c1ccc2cc3n(c2c1)CCCNC3=O [Example 218, 1-oxo-N-(5-phenyl-1H-pyrazol-3-yl)-2,3,4,5-tetrahydro-1H-[1,4]diazepino[1,2-a]indole-8-carboxamide]
68	Cc1cc(NC(=O)c2ccc3cc4n(c3c2)CCCNC4=O)n[nH]1 [Example 219, N-(5-methyl-1H-pyrazol-3-yl)-1-oxo-2,3,4,5-tetrahydro-1H-[1,4]diazepino[1,2-a]indole-8-carboxamide]
93	O=C(Nc1cc[nH]n1)c1ccc2cc3n(c2c1)CCCNC3=O [Example 220, 1-oxo-N-(1H-pyrazol-3-yl)-2,3,4,5-tetrahydro-1H-[1,4]diazepino[1,2-a]indole-8-carboxamide]
8.2	CC1(C)CNC(=O)c2cc3ccc(C(=O)Nc4ccccc4C(N)=O)cc3n21 [Example 221, N-(2-carbamoylphenyl)-4,4-dimethyl-1-oxo-1,2,3,4-tetrahydropyrazino[1,2-a]indole-7-carboxamide]
11	CC1CCNC(=O)c2cc3ccc(C(=O)Nc4ccccc4C(N)=O)cc3n21 (stereo not drawn) [Example 222, N-(2-carbamoylphenyl)-5-methyl-1-oxo-2,3,4,5-tetrahydro-1H-[1,4]diazepino[1,2-a]indole-8-carboxamide]
12	Cc1cc(NC(=O)c2ccc3cc4n(c3c2)[C@H](C)CCNC4=O)no1 [Example 225, (5R)-5-methyl-N-(5-methyl-1,2-oxazol-3-yl)-1-oxo-2,3,4,5-tetrahydro-1H-[1,4]diazepino[1,2-a]indole-8-carboxamide]
